Reference: patent publication US10806746B2, “Di- and tri-cationic glycosylated antitumor ether lipids, L-gucosylated gaels and rhamnose-linked gaels as cytotoxic agents against epithelial cancer cells and cancer stem cells” (The University of Manitoba, priority 2014, dated 2020)
Like-named read-outs stand apart in the source and are kept apart here.

Key:
Format in all cases: cell-based, human
MDA-MB-231 cells = test: MTS viability assay, MDA-MB-231 breast cancer cells
Procedure: (§1) FIG. 2A. Effects of compounds 1-11 on the viability of MDA-MB231 cells. MDA-MB-231 cells were cultured in DMEM medium supplemented with 10% FBS. Equal numbers were dispersed into 96-well plates. After 24 h, the cells were incubated with compounds 1-11 (0-30 μM) for 48 h. At the end of the incubation, MTS reagent (20% vol/vol) was added and the plates were incubated for 1-4 h. The OD490 was read with a plate reader. Wells with media but no cells were treated in similar fashion and the values utilized as blank. The results represent the mean±standard deviation of 6 independent determinations.
as §1, with “2K.” for “2A.”, “1, 69-72” for “1-11”, “MDA-MB-231” for “MDA-MB231”, “1, 69-72” for “1-11 (0-30 μM)”
(§2) The cell lines were cultured from frozen stocks originally obtained from ATCC. MDA-MB-231, JIMT-1, DU145, U81, U251 cells were grown in DMEM medium. BT474, A2780s, A2780cp cells were grown in DMEM/F12 medium supplemented with 10% FBS. MiaPaCa2 was cultured in DMEM supplemented with 10% FBS and 2.5% horse serum. PC3 cells were cultured in F12K medium supplemented with 10% FBS. All the media were supplemented with penicillin/streptomycin.
(§3) The effects of the GAELs on the viability of the various epithelial cancer cell lines was determined as previously described. Briefly, equal numbers of the cells were dispersed into 96-well plates. After 24 h, the cells were incubated with the compounds (0-30 μM) for 48 h. At the end of the incubation, MTS reagent (20% vol/vol) was added and the plates were incubated for 1-4 h. The OD490 was read with a plate reader. Wells with media but no cells were treated in similar fashion and the values utilized as blank. The results represent the mean±standard deviation of 6 independent determinations.

DU145 cells = test: MTS viability assay, DU145 prostate cancer cells
Procedure: as §1, with “2D.” for “2A.”, “DU145” for “MDA-MB231”, “DU145” for “MDA-MB-231”
as §1, with “2H. Effect” for “2A. Effects”, “1, 69-72” for “1-11”, “DU145” for “MDA-MB231”, “DU145” for “MDA-MB-231”, “1, 69-72” for “1-11 (0-30 μM)”
as §2, §3

MiaPaCa2 cells = test: MTS viability assay, MiaPaCa2 pancreas cancer cells
Procedure: as §1, with “2F.” for “2A.”, “MiaPaCa2” for “MDA-MB231”, “MiaPaCa2” for “MDA-MB-231”, “FBS and 2.5% horse serum.” for “FBS.”
as §1, with “2I.” for “2A.”, “1, 69-72” for “1-11”, “MiaPaCa2” for “MDA-MB231”, “MiaPaCa2” for “MDA-MB-231”, “FBS and 2.5% horse serum.” for “FBS.”, “1, 69-72” for “1-11 (0-30 μM)”
as §2, §3

PC3 cells = test: MTS viability assay, PC3 prostate cancer cells
Procedure: as §1, with “2E.” for “2A.”, “PC3” for “MDA-MB231”, “PC3” for “MDA-MB-231”, “F12K” for “DMEM”
as §2, §3

[1] = test system: BT-474, JIMT-1, MDA-MB-231 (breast), DU145, PC3 (prostate), MiaPaCa2 (pancreas); test: MTS viability, panel of epithelial cancer cell lines (ranges over the cell lines); conditions: for CC50: read-out: CC50 values, range depending on the cell line
Procedure: To determine the effect of compounds 1-10 on the viability of the epithelial cancer cell lines, exponentially growing cells, BT-474, JIMT-1, MDA-MB-231 (breast), DU145, PC3 (prostate), MiaPaCa2 (pancreas) were incubated with varying concentrations of 1-8 (0-30 μM) for 48 h followed by viability assays with the MTS reagent.
as §3

[2] = Homo sapiens, MDA-MB-231, Table 5, 48 h, read-out: CC50 MDA-MB-231
[3] = Homo sapiens, MDA-MB-231, Table 5, 48 h, read-out: CC90 MDA-MB-231
[4] = Homo sapiens, DU-145, Table 5, 48 h, read-out: CC50 DU-145
[5] = Homo sapiens, DU-145, Table 5, 48 h, read-out: CC90 DU-145
[6] = Homo sapiens, MIA PaCa-2, Table 5, 48 h, read-out: CC50 Mlapaca2
[7] = Homo sapiens, MIA PaCa-2, Table 5, 48 h, read-out: CC90 Mlapaca2
[8] = Homo sapiens, PC-3, Table 5, 48 h, MTS, read-out: CC50 PC3
[9] = Homo sapiens, PC-3, Table 5, 48 h, MTS, read-out: CC90 PC3
[10] = Homo sapiens, range over the cell lines tested, 48 h
[11] = Table 1A, 48 h, read-out: CC50 values MD 231
[12] = Table 1B, 48 h, read-out: CC90 values MD 231
[13] = Table 1A, 48 h, read-out: CC50 values DU 145
[14] = Table 1B, 48 h, read-out: CC90 values DU 145
[15] = Table 1A, 48 h, read-out: CC50 values MiaPaCa2
[16] = Table 1B, 48 h, read-out: CC90 values MiaPaCa2
[17] = Table 1A, 48 h, MTS, read-out: CC50 values PC3
[18] = Table 1B, 48 h, MTS, read-out: CC90 values PC3
[19] = range over the cell lines tested, 48 h

CCCCCCCCCCCCCCCCOC[C@H](CO[C@H]1O[C@H](CN)[C@@H](O)[C@H](O)[C@H]1N)OC [Compound 1, 1-O-Hexadecyl-2-O-methyl-3-O-(2′,6′-diamino-2′,6′-dideoxy-α-D-glucopyranosyl)-sn-glycerol]
CC50 (MDA-MB-231 cells; Homo sapiens, MDA-MB-231, Table 1A, 48 h, read-out: CC50 values MD 231): 3 µM | CC90 (MDA-MB-231 cells; Homo sapiens, MDA-MB-231, Table 1B, 48 h, read-out: CC90 values MD 231): 4.5 µM | CC50 (MDA-MB-231 cells; [2]): 3 µM | CC90 (MDA-MB-231 cells; [3]): 4.5 µM | CC50 (DU145 cells; Homo sapiens, DU-145, Table 1A, 48 h, read-out: CC50 values DU 145): 5.2 µM | CC90 (DU145 cells; Homo sapiens, DU-145, Table 1B, 48 h, read-out: CC90 values DU 145): 7.4 µM | CC50 (DU145 cells; [4]): 5.2 µM | CC90 (DU145 cells; [5]): 7.4 µM | CC50 (MiaPaCa2 cells; Homo sapiens, MIA PaCa-2, Table 1A, 48 h, read-out: CC50 values MiaPaCa2): 3.5 µM | CC90 (MiaPaCa2 cells; Homo sapiens, MIA PaCa-2, Table 1B, 48 h, read-out: CC90 values MiaPaCa2): 6.5 µM | CC50 (MiaPaCa2 cells; [6]): 3.5 µM | CC90 (MiaPaCa2 cells; [7]): 6.5 µM | CC50 (PC3 cells; Homo sapiens, PC-3, Table 1A, 48 h, MTS, read-out: CC50 values PC3): 3.5 µM | CC90 (PC3 cells; Homo sapiens, PC-3, Table 1B, 48 h, MTS, read-out: CC90 values PC3): 6 µM | CC50 (PC3 cells; [8]): 3.5 µM | CC90 (PC3 cells; [9]): 6 µM | CC50 [1, 10]: 3 to 7.5 µM | CC90 ([1]; Homo sapiens, range over the cell lines tested, 48 h, read-out: CC90 (90% loss of cell viability), range depending on cell lines): 4.5 to 9.5 µM

CCCCCCCCCCCCCCCCOCCCO[C@@H]1O[C@H](CN)[C@@H](O)[C@H](O)[C@H]1N [Compound 4, 1-O-Hexadecyl-2-deoxy-3-O-(2′6′-diamino-2′,6′-dideoxy-β-D-glucopyranosyl)-sn-glycerol]
CC50 (MDA-MB-231 cells; [11]): 4.5 µM | CC90 (MDA-MB-231 cells; [12]): 7 µM | CC50 (DU145 cells; [13]): 6 µM | CC90 (DU145 cells; [14]): 8.5 µM | CC50 (MiaPaCa2 cells; [15]): 6.5 µM | CC90 (MiaPaCa2 cells; [16]): 13 µM | CC50 (PC3 cells; [17]): 8 µM | CC90 (PC3 cells; [18]): 14 µM | CC50 [1, 19]: 4 to 8.5 µM

CCCCCCCCCCCCCCCCOCC(CO[C@@H]1O[C@H](CN)[C@@H](O)[C@H](O)[C@H]1N)O[C@@H]1O[C@H](CN)[C@@H](O)[C@H](O)[C@H]1N (stereo partly drawn) [Compound 5, 1-O-Hexadecyloxy-2S/R, 3-di(-2′,6′-diamino-2′, 6′-dideoxy-β-D-glucopyranosyl)-glycerol]
CC50 (MDA-MB-231 cells; [11]): > 30 µM | CC90 (MDA-MB-231 cells; [12]): > 30 µM | CC50 (DU145 cells; [13]): > 30 µM | CC90 (DU145 cells; [14]): > 30 µM | CC50 (MiaPaCa2 cells; [15]): > 30 µM | CC90 (MiaPaCa2 cells; [16]): > 30 µM | CC50 (PC3 cells; [17]): > 30 µM | CC90 (PC3 cells; [18]): > 30 µM | CC50 [1, 19]: > 30 µM

CCCCCCCCCCCCCCCCOC[C@@H](CN=[N+]=[N-])O[C@@H]1O[C@H](CO)[C@@H](O)[C@H](O)[C@H]1N [Compound 6, 1-O-Hexadecyloxy-2R-(2′-amino-2′-deoxy-β-D-glucopyranosyl)-3-azido glycerol]
CC50 (MDA-MB-231 cells; [11]): 11 µM | CC90 (MDA-MB-231 cells; [12]): 15 µM | CC50 (DU145 cells; [13]): 12.5 µM | CC90 (DU145 cells; [14]): 18 µM | CC50 (MiaPaCa2 cells; [15]): 11.5 µM | CC90 (MiaPaCa2 cells; [16]): 18.5 µM | CC50 (PC3 cells; [17]): 6 µM | CC90 (PC3 cells; [18]): 15 µM | CC50 (PC3 cells; read-out: CC50 against PC-3 cell lines): 6 µM | CC50 [1, 19]: 6 to 22 µM

CCCCCCCCCCCCCCCCOCC(CO[C@@H]1OC(CO)[C@H](O)[C@H](O)C1N)OC (stereo partly shown) [Compound 69]
CC50 (MDA-MB-231 cells; Homo sapiens, MDA-MB-231, Table 2A, 48 h, read-out: CC50 values MDA-MB-231): 11 µM | CC90 (MDA-MB-231 cells; Homo sapiens, MDA-MB-231, Table 2B, 48 h, read-out: CC90 values MDA-MB-231): 17 µM | CC50 (MDA-MB-231 cells; [2]): 11 µM | CC90 (MDA-MB-231 cells; [3]): 17 µM | CC50 (DU145 cells; Homo sapiens, DU-145, Table 2A, 48 h, read-out: CC50 values DU 145): 12.5 µM | CC90 (DU145 cells; Homo sapiens, DU-145, Table 2B, 48 h, read-out: CC90 values DU 145): 16 µM | CC50 (DU145 cells; [4]): 12.5 µM | CC90 (DU145 cells; [5]): 16 µM | CC50 (MiaPaCa2 cells; Homo sapiens, MIA PaCa-2, Table 2A, 48 h, read-out: CC50 values MiaPaCa2): 7.5 µM | CC90 (MiaPaCa2 cells; Homo sapiens, MIA PaCa-2, Table 2B, 48 h, read-out: CC90 values MiaPaCa2): 18 µM | CC50 (MiaPaCa2 cells; [6]): 7.5 µM | CC90 (MiaPaCa2 cells; [7]): 18 µM | CC50 (PC3 cells; Homo sapiens, PC-3, Table 2A, 48 h, MTS, read-out: CC50 values PC3): 12.5 µM | CC90 (PC3 cells; Homo sapiens, PC-3, Table 2B, 48 h, MTS, read-out: CC90 values PC3): 16 µM | CC50 (PC3 cells; [8]): 12.5 µM | CC90 (PC3 cells; [9]): 16 µM | CC50 [1, 10]: 6.5 to 12.5 µM

CCCCCCCCCCCCCCCCOC[C@H](COC1O[C@H](CNCCCCCCCCCCCCN)[C@@H](O)[C@H](O)[C@H]1N)OC (stereo partly shown) [Compound 73, 1-O-Hexadecyl-2-O-methyl-3-O-[6′-N-(12-aminododecyl)-2′,6′-diamino-2′,6′-dideoxy-glucopyranoside]-sn-glycerol]
CC50 (MDA-MB-231 cells; Table 6, 48 h, read-out: MB-MDA-231 CC50): 1.5 µM | CC90 (MDA-MB-231 cells; Table 6, 48 h, read-out: MB-MDA-231 CC90): 3.8 µM | CC50 (DU145 cells; Table 6, 48 h, read-out: DU145 CC50): 3.8 µM | CC90 (DU145 cells; Table 6, 48 h, read-out: DU145 CC90): 4.8 µM | CC50 (MiaPaCa2 cells; Table 6, 48 h, read-out: MiaPaCa2 CC50): 4 µM | CC90 (MiaPaCa2 cells; Table 6, 48 h, read-out: MiaPaCa2 CC90): 6.6 µM | CC50 (PC3 cells; Table 6, 48 h, MTS, read-out: PC3 CC50): 2 µM | CC90 (PC3 cells; Table 6, 48 h, MTS, read-out: PC3 CC90): 3.2 µM | CC50 [1, 19]: 1.5 to 4 µM | cytotoxicity against all cell lines examined ([1]; tricationic GAELs, FIG. 2O, Table 6): cytotoxic
